The values that follow are results of earlier work, collected in US20040142045A1, “THERAPEUTIC TREATMENT FOR BLOOD SUGAR REGULATION” (priority 2003, published 2004).

Like-named read-outs stand apart in the source and are kept apart here.

The conditions of data set [1]: animal models of insulin resistance and Type 2 diabetic patients.
For data set [2] the following is noted: diabetic animals.
Data set [3] concerns glucokinase. The note with it: supplementation.
For data set [4] the following is noted: insulin dependent diabetes mellitus.
For data set [5] the following is noted: experimental animals.
The conditions of data set [6]: Type 1 and Type 2 diabetics, supplementation.
The conditions of data set [7]: diabetics, dietary supplementation.
The conditions of data set [8]: another study, supplementation.
The conditions of data set [9]: mice with abnormally high glucose concentrations.

Turning to `O=C(O)CCCCC1CCSS1` (stereo not drawn) [Alpha lipoic acid], the “insulin regulated glucose disposal” value in data set [1] is recorded as “improve”. Moreover, in data set [2], the blood glucose levels result is on record as “lower” and the “glucose uptake into the peripheral tissues” value was “enhanced”.

In the case of `O=C(O)CCCC[C@@H]1SC[C@@H]2NC(=O)N[C@@H]21` [Biotin], in data set [3], the activity of glucokinase entry is “increase”. For the same compound, the “fasting blood glucose levels” value in [4] was “significant reduction”.

Take `NC(=O)c1cccnc1` [Nicotinamide]: in data set [5], the development of diabetes entry is given as “prevent”.

For the compound `[Zn]` [Zinc], the insulin levels result in data set [6] is reported as “improve”.

With `[Cr]` [chromium], the “fasting blood glucose levels” value in [7] is given as “decrease”.

With `O=S(=O)([O-])[O-].[O]=[V+2]` [vanadyl sulfate], the “fasting blood glucose and hepatic insulin resistance” value in data set [8] is reported as “modest reductions”.

In the case of methylhydroxy chalcone polymer, the glucose concentrations result in data set [9] was “fell dramatically”.
